Consider 15 compounds from patent publication US8247424B2, “Fredericamycin derivatives” (Zentopharm GmbH, priority 2002, dated 2012).

As usually defined, the IC70 is the concentration needed for an effect of 70%. High values mean a need for much substance, low ones an effect from little substance.

≈ marks a conversion by molar mass, not a printed value.

The assay is described as follows: Biological activity against 12 cancer cell lines, efficacy (IC70) averaged over all cell lines.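 Note: panel also covers renal lines RXF 944L and RXF 486L, uterine UXF 1138L, and prostate lines PRXF PC3M and PRXF 22RV1.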 The format is cell-based. The note with it: averaged over all 12 cancer cell lines, 5 test concentrations.
Method: LCL (H460, lung), MACL (MCF7, breast), LXFL (52L, lung), LXFA (629L, lung), MEXF (462NL, melanoma), MEXF (514L, melanoma), MAXF (401NL, breast), RXF (944L, renal), RXF (486L, renal), UXF (1138L, uterus), PRXF (PC3M, prostate), PRXF (22RV1).
The compound `C/C=C/C=C/c1cc2c(F)c3c(c(O)c2c(=O)[nH]1)[C@@]1(CC3)C(=O)c2c(O)c3c(c(O)c2C1=O)C(=O)C(OC)=CC3=O` [Example 23, (8S)-5-fluoro-4′,9,9′-trihydroxy-6′-methoxy-3-[(1E,3E)-penta-1,3-dienyl]-6,7-dihydrospiro[cyclopenta[g]isoquinoline-8,2′-cyclopenta[b]-naphthalene]-1,1′,3′,5′,8′(2H)-pentone] gave an IC70 of 0.011 µg/mL (≈ 0.0197 µM).
Consider `COC1=CC(=O)c2c(O)c3c(c(O)c2C1=O)C(=O)C1(CCc2cc4cc(C=NOCc5ccccc5)[nH]c(=O)c4c(O)c21)C3=O` (stereo not drawn) [Example 121, 4′,9,9′-Trihydroxy-6′-methoxy-1,1′,3′,5′,8′-pentaoxo-1,1′,2,3′,5′,6,7,8′-octahydrospiro[cyclopenta[g]isoquinoline-8,2′-cyclopenta[b]-naphthalene]-3-carbaldehyde O-benzyloxime], for which the IC70 came to 0.202 µg/mL (≈ 0.333 µM). This IC70 is about 18-fold higher than that of the compound before.
The result for `COC1=CC(=O)c2c(O)c3c(c(O)c2C1=O)C(=O)C1(CCc2cc4cc(C=NOCc5cccc(Cl)c5)[nH]c(=O)c4c(O)c21)C3=O` (stereo not drawn) [Example 127, 4′,9,9′-Trihydroxy-6′-methoxy-1,1′,3′,5′,8′-pentaoxo-1,1′,2,3′,5′,6,7,8′-octahydrospiro[cyclopenta[g]isoquinoline-8,2′-cyclopenta[b]-naphthalene]-3-carbaldehyde O-(3-chlorobenzyl)oxime] reads 0.155 µg/mL (≈ 0.242 µM); that for `COC1=CC(=O)c2c(O)c3c(c(O)c2C1=O)C(=O)[C@]1(CCc2c1c(O)c1c(=O)[nH]c(C=NOCCN4CCOCC4)cc1c2Br)C3=O` [Example 192, (8S)-5-bromo-4′,9,9′-trihydroxy-6′-methoxy-1,1′,3′,5′,8′-pentaoxo-1,1′,2,3′,5′,6,7,8′-octahydrospiro[cyclopenta[g]isoquinoline-8,2′-cyclopenta[b]-naphthalene]-3-carbaldehyde O-[2-morpholine-4-yl-ethyl)oxime], 0.075 µg/mL (≈ 0.106 µM); that for `CON=Cc1cc2c(Br)c3c(c(O)c2c(=O)[nH]1)[C@@]1(CC3)C(=O)c2c(O)c3c(c(O)c2C1=O)C(=O)C(OC)=CC3=O` [Example 196, (8S)-5-bromo-4′,9,9′-trihydroxy-6′-methoxy-1,1′,3′,5′,8′-pentaoxo-1,1′,2,3′,5′,6,7,8′-octahydrospiro[cyclopenta[g]isoquinoline-8,2′-cyclopenta[b]-naphthalene]-3-carbaldehyde O-methyloxime], 0.095 µg/mL (≈ 0.156 µM).
In the case of `COC1=CC(=O)c2c(O)c3c(c(O)c2C1=O)C(=O)[C@]1(CCc2c1c(O)c1c(=O)[nH]c(C=NOCc4ccccc4)cc1c2Br)C3=O` [Example 197, (8S)-5-bromo-4′,9,9′-trihydroxy-6′-methoxy-1,1′,3′,5′,8′-pentaoxo-1,1′,2,3′,5′,6,7,8′-octahydrospiro[cyclopenta[g]isoquinoline-8,2′-cyclopenta[b]-naphthalene]-3-carbaldehyde-O-benzyloxime] it was 0.034 µg/mL (≈ 0.0496 µM); in that of `COC1=CC(=O)c2c(O)c3c(c(O)c2C1=O)C(=O)[C@]1(CCc2c1c(O)c1c(=O)[nH]c(C=NO)cc1c2Br)C3=O` [Example 198, (8S)-5-bromo-4′,9,9′-trihydroxy-6′-methoxy-1,1′,3′,5′,8′-pentaoxo-1,1′,2,3′,5′,6,7,8′-octahydrospiro[cyclopenta[g]isoquinoline-8,2′-cyclopenta[b]-naphthalene]-3-carbaldehyde oxime], 0.256 µg/mL (≈ 0.43 µM).
Consider `COC1=CC(=O)c2c(O)c3c(c(O)c2C1=O)C(=O)[C@]1(CCc2c1c(O)c1c(=O)[nH]c(C=NOCc4cccc(Cl)c4)cc1c2Br)C3=O` [Example 203, (8S)-5-bromo-4′,9,9′-trihydroxy-6′-methoxy-1,1′,3′,5′,8′-pentaoxo-1,1′,2,3′,5′,6,7,8′-octahydrospiro[cyclopenta[g]isoquinoline-8,2′-cyclopenta[b]-naphthalene]-3-carbaldehyde O-(3-chlorobenzyl)oxime], for which the IC70 amounted to 0.159 µg/mL (≈ 0.221 µM).
In the case of `COC1=CC(=O)c2c(O)c3c(c(O)c2C1=O)C(=O)[C@]1(CCc2c1c(O)c1c(=O)[nH]c(C=NOCCCN4CCN(c5cccc(Cl)c5)CC4)cc1c2Br)C3=O` [Example 212, (8S)-5-bromo-4′,9,9′-trihydroxy-6′-methoxy-1,1′,3′,5′,8′-pentaoxo-1,1′,2,3′,5′,6,7,8′-octahydrospiro[cyclopenta[g]isoquinoline-8,2′-cyclopenta[b]-naphthalene]-3-carbaldehyde O-[3-(4-(3-chlorophenyl)-piperazine-1-yl)propyl]oxime], the IC70 was 0.21 µg/mL (≈ 0.252 µM).
The result for `COC1=CC(=O)c2c(O)c3c(c(O)c2C1=O)C(=O)[C@]1(CCc2cc4cc(C=NOC(C)C)[nH]c(=O)c4c(O)c21)C3=O` [Example 214, (8S)-4′,9,9′-trihydroxy-6′-methoxy-1,1′,3′,5′,8′-pentaoxo-1,1′,2,3′,5′,6,7,8′-octahydrospiro[cyclopenta[g]isoquinoline-8,2′-cyclopenta[b]-naphthalene]-3-carbaldehyde O-isopropyloxime] reads 0.022 µg/mL (≈ 0.0394 µM); that for `CCCCCCON=Cc1cc2cc3c(c(O)c2c(=O)[nH]1)[C@@]1(CC3)C(=O)c2c(O)c3c(c(O)c2C1=O)C(=O)C(OC)=CC3=O` [Example 215, (8S)-4′,9,9′-trihydroxy-6′-methoxy-1,1′,3′,5′,8′-pentaoxo-1,1′,2,3′,5′,6,7,8′-octahydrospiro[cyclopenta[g]isoquinoline-8,2′-cyclopenta[b]-naphthalene]-3-carbaldehyde O-n-hexyloxime], 0.072 µg/mL (≈ 0.12 µM).
The result for `COC1=CC(=O)c2c(O)c3c(c(O)c2C1=O)C(=O)[C@]1(CCc2cc4cc(C=NOCc5ccc(Cl)cc5)[nH]c(=O)c4c(O)c21)C3=O` [Example 217, (8S)-4′,9,9′-trihydroxy-6′-methoxy-1,1′,3′,5′,8′-pentaoxo-1,1′,2,3′,5′,6,7,8′-octahydrospiro[cyclopenta[g]isoquinoline-8,2′-cyclopenta[b]-naphthalene]-3-carbaldehyde O-(4-chlorobenzyl)oxime] reads 0.129 µg/mL (≈ 0.201 µM); that for `COC1=CC(=O)c2c(O)c3c(c(O)c2C1=O)C(=O)[C@]1(CCc2cc4cc(C=NOCc5cccc(F)c5)[nH]c(=O)c4c(O)c21)C3=O` [Example 218, (8S)-4′,9,9′-trihydroxy-6′-methoxy-1,1′,3′,5′,8′-pentaoxo-1,1′,2,3′,5′,6,7,8′-octahydrospiro[cyclopenta[g]isoquinoline-8,2′-cyclopenta[b]-naphthalene]-3-carbaldehyde O-(3-fluorobenzyl)oxime], 0.076 µg/mL (≈ 0.122 µM).
`COC1=CC(=O)c2c(O)c3c(c(O)c2C1=O)C(=O)[C@]1(CCc2c1c(O)c1c(=O)[nH]c(C=NOC(C)C)cc1c2Br)C3=O` [Example 224, (8S)-5-bromo-4′,9,9′-trihydroxy-6′-methoxy-1,1′,3′,5′,8′-pentaoxo-1,1′,2,3′,5′,6,7,8′-octahydrospiro[cyclopenta[g]isoquinoline-8,2′-cyclopenta[b]-naphthalene]-3-carbaldehyde O-isopropyloxime]: it took 0.047 µg/mL (≈ 0.0737 µM) to reach the 70% level (IC70).
For `CCCCCCON=Cc1cc2c(Br)c3c(c(O)c2c(=O)[nH]1)[C@@]1(CC3)C(=O)c2c(O)c3c(c(O)c2C1=O)C(=O)C(OC)=CC3=O` [Example 225, (8S)-5-bromo-4′,9,9′-trihydroxy-6′-methoxy-1,1′,3′,5′,8′-pentaoxo-1,1′,2,3′,5′,6,7,8′-octahydrospiro[cyclopenta[g]isoquinoline-8,2′-cyclopenta[b]-naphthalene]-3-carbaldehyde O-n-hexyloxime], the 70% effect level (IC70) was put at 0.111 µg/mL (≈ 0.163 µM).
